Assay results reported in the OPERA property sets (Mansouri et al. 2018).

Structure (SMILES)	boiling point [°C]	log10 vapour pressure (mmHg)	melting point [°C]	ready biodegradability	log10 Henry constant (atm·m³/mol)	log10 Koc (L/kg)	log10 biodegradation half-life (days)
CCOCCOCCOC(C)=O	218	-1	-25	readily biodegradable			
Brc1cc(Br)c(Br)cc1Br			182				
CCCOC(=O)CCC	143	0.775	-95.2				
Cc1ccc(C(C)C)c(O)c1C(=O)O			127				
CCNC(=O)/C=C(C)/C=C/C=C(C)/C=C/c1c(C)cc(OC)c(C)c1C			180				
CN(C)c1ccc(C#N)cc1	318		74				
Nc1ccccc1C(=O)OCC=Cc1ccccc1			61				
c1ccc2c(c1)nnn2C1CCCCC1			104				
CC(C)(C)C(C)(C)Cl			136				
Clc1ccccc1-c1cccc(Cl)c1Cl					-3.7		
CC(C)OC(=O)OOC(=O)OC(C)C			10				
CNC(=O)Nc1ccccc1						1.29	
c1ccc(C2=NCCN2)cc1			96.5				
C[N+]1(C)CCCCC1.[Cl-]			223				
CC(C)(C)c1ccc(Br)cc1	232		19				
O=C(C(Cl)(Cl)Cl)C(Cl)(Cl)Cl	203		-2				
O=C(Cl)/C=C/C(=O)Cl	159	0.316					
Nc1cccc2cc3ccccc3nc12			108				
Cc1ccc(S(=O)(=O)Oc2c(C(=O)c3ccc(Cl)cc3Cl)c(C)nn2C)cc1			118				
COc1nc(C)nc(NC(=O)NS(=O)(=O)c2ccccc2Cl)n1		-10.6	176			2.19	
Cc1ccc(Cl)c(Nc2ccccc2C(=O)O)c1Cl			257				
O=C(CCC(=O)Oc1ccccc1)Oc1ccccc1	330		121				
Cc1ccc(N)c(Br)c1	240		26				

Structure (SMILES)	boiling point [°C]	log10 vapour pressure (mmHg)	melting point [°C]	ready biodegradability	log10 Henry constant (atm·m³/mol)	log10 Koc (L/kg)	log10 biodegradation half-life (days)
c1cn[nH]n1	204		23				
c1ccc2c(c1)c1ccccc1c1ccccc21	425	-7.68	199				2.58
CCCCCCCCCCCCCCC1CCCCC1	360		24				
O=C(O)c1cccc2cccc(C(=O)O)c12			260				
O=C1CCCO1	204	-0.347	-43.3	readily biodegradable			
C=CC(C)CC (configuration not stated)	54.2	2.43	-153				
O=C1CCCCCCCCCC1		-1.31					
CC(=O)O[C@]1(C(C)=O)CC[C@H]2[C@@H]3CCC4=CC(=O)CC[C@]4(C)[C@@]3(F)[C@@H](O)C[C@@]21C			268				
CNCCOC(=O)/C=C1/CC[C@H]2[C@@H]([C@@H](O)C[C@@H]3[C@]2(C)CCC[C@]3(C)C(=O)OC)[C@H]1C			115				
NC(=O)Nc1ccccc1Cl						1.61	
O=C1C(Cl)=C(NC(=O)C(Cl)Cl)C(=O)c2ccccc21			212				
CC(C)C=CC(C)C		1.64					
Nc1cccc2cccc(N)c12			66.5	not readily biodegradable			
COC(=O)C(C)=O	136						
Nc1ccccc1[N+](=O)[O-]	284	-2.56	71	not readily biodegradable	-7.23		
CC(C)OC(=O)CCCCC(=O)OC(C)C			-1.1				
CCN(CC)CCNC(=O)c1cc(S(C)(=O)=O)ccc1OC			124				
COCC(C)OC(C)=O (configuration not stated)	146	0.593				0.36	
CCc1ssc(=O)c1-c1ccccc1			82				
Fc1ccc(N2CCNCC2)cc1			31.5				
CCC(C)(C)c1cc(C)cc(C(C)(C)CC)c1O	283						
CC(=O)C#N	92.3						
O=c1cccco1	208		8.5				
